Converted amounts (≈) assume the structure as drawn.
Key:
[1] = Selectivity index, ratio of GI50 for human HeLa cells to MIC for Mycobacterium bovis BCG ATCC 35743; type: toxicity, cell-based; conditions: pooled result: one value given for 3 cell lines, strains, targets or settings, read-out: Selectivity Index
[2] = Selectivity index, ratio of GI50 for human HeLa cells to MIC for Mycobacterium tuberculosis H37Ra ATCC 25177; type: toxicity, cell-based; conditions: pooled result: one value given for 3 cell lines, strains, targets or settings, read-out: Selectivity Index
[3] = test system: Mycobacterium tuberculosis; assay: Antitubercular activity against Mycobacterium tuberculosis H37Ra ATCC 25177 by XTT Reduction Menadione Assay; type: functional, organism-based
[4] = test system: Mycobacterium tuberculosis; assay: Antitubercular activity against Mycobacterium tuberculosis H37Ra ATCC 25177 at 3 ug/ml by XTT Reduction Menadione Assay; type: functional
A549 [5] = assay: Antiproliferative activity against human A549 cells at 30 ug/ml after 48 hrs by MTT assay; type: cell-based; conditions: a549, 48 h
[6] = Antioxidant activity assessed as DPPH radical scavenging activity by spectrophotometric assay; type: physicochemical
HeLa [7] = assay: Antiproliferative activity against human HeLa cells at 10 ug/ml after 72 hrs by MTT assay; type: cell-based
[8] = (§1) Cytotoxicity against human HeLa cells assessed as growth inhibition after 72 hrs by MTT assay; type: cell-based; conditions: HeLa cells
HeLa [9] = assay: as §1; type: cell-based; conditions: hela, 72 h
HeLa [10] = assay: Antiproliferative activity against human HeLa cells at 30 ug/ml after 72 hrs by MTT assay; type: cell-based
[11] = Cytotoxicity against human A431 cells assessed as growth inhibition after 48 hrs by MTT assay; type: cell-based, A-431
A-431 [12] = assay: Antiproliferative activity against human A431 cells at 30 ug/ml after 48 hrs by MTT assay; type: cell-based; conditions: a-431, 48 h
A-431 [13] = assay: Antiproliferative activity against human A431 cells at 3 ug/ml after 48 hrs by MTT assay; type: cell-based; conditions: a-431, 48 h
A549 [14] = assay: Antiproliferative activity against human A549 cells at 3 ug/ml after 48 hrs by MTT assay; type: cell-based; conditions: a549, 48 h
HeLa [15] = assay: Antiproliferative activity against human HeLa cells at 3 ug/ml after 72 hrs by MTT assay; type: cell-based
[16] = test system: Mycobacterium tuberculosis; assay: Antitubercular activity against Mycobacterium tuberculosis H37Ra ATCC 25177 at 30 ug/ml by XTT Reduction Menadione Assay; type: functional
[17] = (§2) Cytotoxicity against human A549 cells assessed as growth inhibition after 48 hrs by MTT assay; type: cell-based; conditions: A549 cells
A549 [18] = assay: as §2; type: cell-based; conditions: a549, 48 h
[19] = test system: Mycobacterium tuberculosis; assay: Antitubercular activity against Mycobacterium tuberculosis H37Ra ATCC 25177 at 10 ug/ml by XTT Reduction Menadione Assay; type: functional
A549 [20] = assay: Antiproliferative activity against human A549 cells at 10 ug/ml after 48 hrs by MTT assay; type: cell-based; conditions: a549, 48 h
A-431 [21] = assay: Antiproliferative activity against human A431 cells at 10 ug/ml after 48 hrs by MTT assay; type: cell-based; conditions: a-431, 48 h

Structure (SMILES)	IC50 [3] [µg/mL]	MIC [3] [µg/mL]	inhibition at 3 µg/mL [4] [%]	Activity (A549 [5]) [%]	IC50 [6] [µg/mL]	Activity (HeLa [7]) [%]	GI50 at 72 h [8] [µg/mL]	GI50 (HeLa [9]) [µg/mL]	Activity (HeLa [10]) [%]	GI50 at 48 h [11] [µg/mL]	Activity (A-431 [12]) [%]	Activity (A-431 [13]) [%]	Activity (A549 [14]) [%]	Activity (HeLa [15]) [%]	inhibition at 30 µg/mL [16] [%]	GI50 at 48 h [17] [µg/mL]	MIC (A549 [18]) [µg/mL]	inhibition at 10 µg/mL [19] [%]	Activity (A549 [20]) [%]	Activity (A-431 [21]) [%]	also measured
NNC(=O)c1ccncc1 [ISONIAZID]	0.0025 (≈ 0.0182 µM)	0.075 (≈ 0.547 µM)																			selectivity ratio [1]: 2220; selectivity ratio [2]: 1330
O=C1CSc2ccccc2N1Cc1cn(Cc2ccc([N+](=O)[O-])cc2)nn1	9.2 (≈ 24.1 µM)	> 30	9.8	8.43	27.4 (≈ 71.8 µM)	53.2	> 30	> 30	55.5	> 30	44.7	10.8	0	36.5	70.6	> 30	> 30	52.9	17.56	12.9	selectivity ratio [1]: 1.02; selectivity ratio [2]: 1
O=C1CSc2ccccc2N1Cc1cn(Cc2ccccc2Cl)nn1	> 30	> 30	41.9	23.34	16.35 (≈ 44.1 µM)	38.6	> 30	> 30	55.9	> 30	31.4	15.4	4.19	48.1	37.8	> 30	> 30	74.9	-8.41	29.6	
O=C1CSc2ccccc2N1Cc1cn(Cc2cccc(Cl)c2)nn1	8.03 (≈ 21.7 µM)	27.3 (≈ 73.7 µM)	8.6	19.04	45.63 (≈ 123 µM)	43.4	> 30	> 30	45.7	> 30	4.4	-6.3	6.38	52.3	94.2	> 30	> 30	66.6	3.31	-13.7	selectivity ratio [1]: 1.05; selectivity ratio [2]: 1.1
CC(=O)O[C@H]1C(=O)[C@@]2(C)[C@H]([C@H](OC(=O)c3ccccc3)[C@]3(O)C[C@H](OC(=O)[C@H](O)[C@@H](NC(=O)c4ccccc4)c4ccccc4)C(C)=C1C3(C)C)[C@]1(OC(C)=O)CO[C@@H]1C[C@@H]2O [PACLITAXEL]							0.14 (≈ 0.164 µM)			0.0023 (≈ 0.00269 µM)						< 0.0023	0.039 (≈ 0.0457 µM)				
O=C1CSc2ccccc2N1Cc1cn(Cc2ccccc2)nn1	9.11 (≈ 27.1 µM)	> 30	-15.4	25.91	36.26 (≈ 108 µM)	8.8	> 30	> 30	39.6	> 30	-10.8	0	-7.85	0	82.2	> 30	> 30	59.3	-9.82	-37.2	
O=C1CSc2ccccc2N1Cc1cn(Cc2ccc(F)cc2)nn1	1.24 (≈ 3.5 µM)	29.2 (≈ 82.5 µM)	73.8	30.9	14.15 (≈ 39.9 µM)	46.3	28.6 (≈ 80.8 µM)	> 30	51.3	> 30	44.5	17.3	12.32	45.1	91.3	> 30	> 30	77.5	4.1	31.1	selectivity ratio [1]: 1.09; selectivity ratio [2]: 1.02
O=C1CSc2ccccc2N1Cc1cn(-c2cccc([N+](=O)[O-])c2)nn1	> 30	> 30	25.7	22.02	47.11 (≈ 128 µM)	13.3	> 30	> 30	37.5	> 30	29.7	17.2	12.32	11.9	1.2	> 30	> 30	8.7	0.19	25.4	
CO[C@H]1/C=C/O[C@@]2(C)Oc3c(C)c(O)c4c(O)c(c(/C=N/N5CCN(C)CC5)c(O)c4c3C2=O)NC(=O)/C(C)=C\C=C\[C@H](C)[C@H](O)[C@@H](C)[C@@H](O)[C@@H](C)[C@H](OC(C)=O)[C@@H]1C [RIFAMPIN]		0.043 (≈ 0.0523 µM)																			selectivity ratio [1]: 2440; selectivity ratio [2]: 2330
O=C1CSc2ccccc2N1Cc1cn(-c2ccc([N+](=O)[O-])cc2)nn1	> 30	> 30	24.2	38.71	44.29 (≈ 121 µM)	-0.9	> 30	> 30	35.8	> 30	0	0	33.22	13.3	28.5	> 30	> 30	0.3	24.73	0	
O=C1CSc2ccccc2N1Cc1cn(Cc2ccc(Cl)cc2)nn1	2.67 (≈ 7.2 µM)	> 30	52.1	51.91	44.29 (≈ 119 µM)	29.6	> 30	> 30	45.1	27.3 (≈ 73.6 µM)	61.5	35	3.6	41.9	65.8	29.9 (≈ 80.7 µM)	> 30	75.3	4.35	40.9	
Cc1cc(C(C)(C)C)c(O)c(C(C)(C)C)c1 [BUTYLATED HYDROXYTOLUENE]					16.47 (≈ 74.7 µM)																
O=C1CSc2ccccc2N1Cc1cn(Cc2ccc(Br)cc2)nn1	> 30	> 30	58	44.78	14.14 (≈ 34 µM)	32.9	> 30	> 30	41.3	> 30	35.5	8.6	-5.96	40.4	49.8	> 30	> 30	38.4	-1.37	4	
O=C1CSc2ccccc2N1Cc1cn(Cc2cccc([N+](=O)[O-])c2)nn1	12.4 (≈ 32.4 µM)	> 30	34.8	-11.78	34.12 (≈ 89.5 µM)	-3	> 30	> 30	20.1	> 30	15.6	13.9	-9.71	0	60.2	> 30	> 30	48.9	0	16.5	

— ChEMBL document CHEMBL3763138, “Synthesis and bioactivity of novel triazole incorporated benzothiazinone derivatives as antitubercular and antioxidant agent” (Bioorg Med Chem Lett, 2016)
